Results taken from PMC6277767, “Broad and Region-Specific Impacts of the Synthetic Cannabinoid CP 55,940 in Adolescent and Adult Female Mouse Brains” (Frontiers in Molecular Neuroscience, 2018).

System: CD1 female mouse brain lipidome
Test: Brain-region lipid levels (HPLC/MS/MS lipidomics) 2 h after single i.p. 3 mg/kg CP 55,940 vs vehicle
Assay type: in vivo
Conditions: brainstem
Experimental: The Bloomington Institutional Animal Care and Use Committee of Indiana University reviewed and approved the animal procedures. Female mice from the CD1 strain were utilized to match our study examining THC’s effects on the brain lipidome ([Leishman et al., 2018]). Mice were given a single i.p. injection of either 3 mg/kg CP or 1:1:18 cremophor:ethanol:saline vehicle (please refer to the section “3 mg/kg CP Is Relevant for Synthetic Cannabinoid Abuse and Has Stronger Effects on the Female Mouse Brain Lipidome During Adolescence” for a justification of dose and use of female mice). Three different age groups were given injections: PND 35 and PND 50 adolescents, and adult mice (PND 113). At least eight mice in each age group received CP and at least eight received vehicle. Matching the THC study time course ([Leishman et al., 2018]), mice were sacrificed via rapid decapitation 2 h after injection. Brains were immediately removed and flash-frozen in liquid nitrogen, and then stored at -80°C until dissections were performed. Brains were dissected on an ice-cold dissection plate into the following regions: STR, HIPP, CER, THAL, CTX, HYP, MID, and STEM. These abbreviations for these brain areas will be used exclusively when discussing the results generated by these specific dissections. Each dissected area was immediately placed in liquid nitrogen and then stored at -80°C until used for lipid extraction.
Tissue extracts were performed as previously described ([Bradshaw et al., 2006]; [Stuart et al., 2013]; [Raboune et al., 2014]; [Leishman et al., 2016a],[b], [2017], [2018]). First, samples were shock frozen in liquid nitrogen, weighed, and transferred to a centrifuge tube. The mass of the largest sample was multiplied by 50 to determine how many milliliters of HPLC-grade methanol (Fisher, Fair Lawn, NJ, United States) to add. Then, samples were spiked with 500 pmol deuterium-labeled NAGly (d8NAGly; Cayman Chemical, Ann Arbor, MI, United States). Samples were placed on ice in darkness for 2 h then individually homogenized and centrifuged at 19,000 × g for 20 min at 20°C. Supernatants were diluted with HPLC water (purified in house) to make a solution of 75% water, 25% supernatant. Lipids were partially purified on C18 solid phase extraction columns (Agilent, Palo Alto, CA, United States). A series of four elutions with 1.5 mL of 60%, 75%, 85%, and 100% methanol were collected ([Stuart et al., 2013]; [Leishman et al., 2016a],[b], [2018]).
As previously described ([Bradshaw et al., 2006]; [Tan et al., 2006]; [Smoum et al., 2010]; [Stuart et al., 2013]; [Tortoriello et al., 2013]; [Raboune et al., 2014]; [Leishman et al., 2016a],[b], [2017], [2018]), samples were analyzed using an Applied Biosystems API 3000 triple quadrupole mass spectrometer with electrospray ionization (Foster City, CA, United States). Using an Agilent XDB-C18 reversed phase analytical column and optimized mobile phase gradients, 20 μL from each elution were chromatographed. Two Shimadzu 10ADvp pumps (Columbia, MD, United States) provided the pressure for gradient elution. Mobile phase A: 20% methanol, 80% water (v/v) and 1 mM ammonium acetate (Sigma, St. Louis, MO, United States). Mobile phase B: 100% methanol, 1 mM ammonium acetate. Every method run began with 0% mobile phase B, reached 100% mobile phase B flowing at 0.2 mL/min, and gradually returned to 0% mobile phase B.
This screening library will be referred to as the lipidome when discussing data from this study. HPLC/MS/MS data were analyzed using Analyst software (Applied Biosystems) ([Bradshaw et al., 2006]; [Tan et al., 2006]; [Stuart et al., 2013]; [Tortoriello et al., 2013]; [Raboune et al., 2014]; [Leishman et al., 2016a],[b], [2017], [2018]). Chromatograms (Supplementary Figure 3) were generated by determining the retention time of analytes from the analytical column with a [M-1] or [M+1] parent peak and a fragmentation peak corresponding to the programmed values. […]

[1] = PND 50, 3 mg/kg CP 55,940, one-way ANOVA p .000
[2] = PND 50, 3 mg/kg CP 55,940, one-way ANOVA p .001
[3] = PND 50, 3 mg/kg CP 55,940, one-way ANOVA p .002
[4] = PND 50, 3 mg/kg CP 55,940, one-way ANOVA p .003
[5] = PND 50, 3 mg/kg CP 55,940, one-way ANOVA p .006
[6] = PND 50, 3 mg/kg CP 55,940, one-way ANOVA p .007
[7] = PND 50, 3 mg/kg CP 55,940, one-way ANOVA p .008
[8] = PND 50, 3 mg/kg CP 55,940, one-way ANOVA p .014
[9] = PND 50, 3 mg/kg CP 55,940, one-way ANOVA p .015
[10] = PND 50, 3 mg/kg CP 55,940, one-way ANOVA p .018
[11] = PND 50, 3 mg/kg CP 55,940, one-way ANOVA p .023
[12] = PND 50, 3 mg/kg CP 55,940, one-way ANOVA p .041
[13] = PND 50, 3 mg/kg CP 55,940, one-way ANOVA p .043

Structure (SMILES): CCCCCCC(C)(C)c1ccc([C@@H]2C[C@H](O)CC[C@H]2CCCO)c(O)c1 [CP 55,940]
- N-palmitoyl methionine level, Mean (PND 50, 3 mg/kg CP 55,940): 7.37E-13
- N-palmitoyl phenylalanine level, Mean (PND 50, 3 mg/kg CP 55,940): 1.09E-12
- N-palmitoyl proline level, Mean (PND 50, 3 mg/kg CP 55,940): BDL
- N-palmitoyl serine level, Mean (PND 50, 3 mg/kg CP 55,940): 2E-11
- N-palmitoyl tryptophan level, Mean (PND 50, 3 mg/kg CP 55,940): BDL
- N-palmitoyl tyrosine level, Mean (PND 50, 3 mg/kg CP 55,940): 5.77E-13
- N-palmitoyl valine level, Mean (PND 50, 3 mg/kg CP 55,940): 1.73E-13
- N-stearoyl GABA level, Mean (PND 50, 3 mg/kg CP 55,940): 7.1E-12
- N-stearoyl alanine level, Mean (PND 50, 3 mg/kg CP 55,940): 1.5E-12
- N-stearoyl ethanolamine level, Mean (PND 50, 3 mg/kg CP 55,940): 2.63E-11
- N-stearoyl glycine level, Mean (PND 50, 3 mg/kg CP 55,940): 4.43E-12
- N-stearoyl leucine level, Mean (PND 50, 3 mg/kg CP 55,940): 7.24E-13
- N-stearoyl methionine level, Mean (PND 50, 3 mg/kg CP 55,940): 8.45E-13
- N-stearoyl phenylalanine level, Mean (PND 50, 3 mg/kg CP 55,940): 9.56E-13
- N-stearoyl proline level, Mean (PND 50, 3 mg/kg CP 55,940): BDL
- N-stearoyl serine level, Mean (PND 50, 3 mg/kg CP 55,940): 3.14E-11
- N-stearoyl tryptophan level, Mean (PND 50, 3 mg/kg CP 55,940): BDL
- N-stearoyl tyrosine level, Mean (PND 50, 3 mg/kg CP 55,940): 7.69E-14
- Oleic acid level, Mean (PND 50, 3 mg/kg CP 55,940): 1.94E-10
- PGE2 level, Mean (PND 50, 3 mg/kg CP 55,940): 1.11E-10
- PhosphoLEA level, Mean (PND 50, 3 mg/kg CP 55,940): 7.34E-13
- THC level, Mean (PND 50, 3 mg/kg CP 55,940): BDL
- N-arachidonoyl GABA Direction (relative to Veh) [1]: ↓
- N-arachidonoyl GABA Magnitude (x Veh level) [1]: 0.68 x Veh level
- PGF2α Direction (relative to Veh) [1]: ↓
- PGF2α Magnitude (x Veh level) [1]: 0.74 x Veh level
- N-palmitoyl leucine, Direction (relative to Veh) [2]: ↑
- N-palmitoyl leucine, Magnitude (x Veh level) [2]: 1.44 x Veh level
- 6-ketoPGF1α Direction (relative to Veh) [3]: ↓
- 6-ketoPGF1α Magnitude (x Veh level) [3]: 0.70 x Veh level
- N-arachidonoyl taurine Direction (relative to Veh) [4]: ↓
- N-arachidonoyl taurine Magnitude (x Veh level) [4]: 0.83 x Veh level
- N-palmitoyl tyrosine Magnitude (x Veh level) [5]: 1.23 x Veh level
- N-palmitoyl tyrosine, Direction (relative to Veh) [5]: ↑
- N-arachidonoyl tyrosine, Direction (relative to Veh) [6]: ↓
- N-arachidonoyl tyrosine, Magnitude (x Veh level) [6]: 0.74 x Veh level
- N-arachidonoyl serine Direction (relative to Veh) [7]: ↓
- N-arachidonoyl serine Magnitude (x Veh level) [7]: 0.80 x Veh level
- PGE2 Direction (relative to Veh) [8]: ↓
- PGE2 Magnitude (x Veh level) [8]: 0.73 x Veh level
- 2-linoleoyl glycerol Direction (relative to Veh) [9]: ↓
- 2-linoleoyl glycerol Magnitude (x Veh level) [9]: 0.74 x Veh level
- Oleic acid, Direction (relative to Veh) [10]: ↓
- Oleic acid, Magnitude (x Veh level) [10]: 0.84 x Veh level
- N-arachidonoyl phenylalanine, Direction (relative to Veh) [11]: ↑
- N-arachidonoyl phenylalanine, Magnitude (x Veh level) [11]: 1.40 x Veh level
- N-oleoyl methionine, Direction (relative to Veh) [12]: ↓
- N-oleoyl methionine, Magnitude (x Veh level) [12]: 0.68 x Veh level
- Linoleic acid, Direction (relative to Veh) [13]: ↓
- Linoleic acid, Magnitude (x Veh level) [13]: 0.81 x Veh level
- 2-oleoyl glycerol, Direction (relative to Veh) (PND 50, 3 mg/kg CP 55,940, one-way ANOVA p .046): ↓
